Patent US10306878B2, “Insect pest control agent” (priority 2013, dated 2019)

Test system: female cockroach (periplaneta fuliginosa)
Experiment: Efficacy Test 1: Concentrate Dropping Test
Format: in vivo
Settings: for Time until the subject insect stops moving (seconds) Average / Time until the subject insect stops moving (seconds) No. 1 / Time until the subject insect stops moving (seconds) No. 2 / Time until the subject insect stops moving (seconds) No. 3 / Time until the subject insect stops moving (seconds) No. 4 / Time until the subject insect stops moving (seconds) No. 5: 0.5 mL dropped between thorax and abdomen; for Time until the subject insect stops moving (seconds) Average: average of five tests; for Time until the subject insect stops moving (seconds) No. 1: repeat No. 1; for Time until the subject insect stops moving (seconds) No. 2: repeat No. 2; for Time until the subject insect stops moving (seconds) No. 3: repeat No. 3; for Time until the subject insect stops moving (seconds) No. 4: repeat No. 4; for Time until the subject insect stops moving (seconds) No. 5: repeat No. 5; for Lethality (%) after 24 hours: 0.5 mL dropped, 24 hours at 20° C., humidity 26%, five tests
Experimental: A plastic cup (capacity of 860 ml) that is open at the top was provided, and butter was spread on the upper part of the cup interior. Then, as a subject insect, one female cockroach (periplaneta fuliginosa) was gently placed on its back at the bottom of the plastic cup.
After confirming that the subject insect is lying on its back, 0.5 mL of the subject agent in Table 1 was dropped on to the insect between the thorax and the abdomen using a pipet, and the time (seconds) until the subject insect's movement completely stopped was measured.
Subsequently, the subject insect was transferred to another plastic cup and left in a room having a temperature of 20° C. and a humidity of 26%. The number of subject insects that died after 24 hours was counted. The test was repeated five times to obtain the lethality (%) based on the average of the results.

FC(F)(F)/C=C/Cl [Example 1, Trans-1-chloro-3,3,3-trifluoropropene]
Time until the subject insect stops moving (seconds) Average: 1.4 s
Time until the subject insect stops moving (seconds) No. 1: 2 s
Time until the subject insect stops moving (seconds) No. 2: 1 s
Time until the subject insect stops moving (seconds) No. 3: 1 s
Time until the subject insect stops moving (seconds) No. 4: 1 s
Time until the subject insect stops moving (seconds) No. 5: 2 s
Lethality (%) after 24 hours: 80%

FC(F)C(F)(F)C(F)(F)C(F)(F)C(F)(F)C(F)(F)F [Comparative Example 2, 1H-Tridecafluorohexane]
Time until the subject insect stops moving (seconds) Average: 56.4 s
Time until the subject insect stops moving (seconds) No. 1: 54 s
Time until the subject insect stops moving (seconds) No. 2: 50 s
Time until the subject insect stops moving (seconds) No. 3: 53 s
Time until the subject insect stops moving (seconds) No. 4: 62 s
Time until the subject insect stops moving (seconds) No. 5: 63 s
Lethality (%) after 24 hours: 40%
